Measured values as given in publication PMC5513091, “A novel Alzheimer’s disease drug candidate targeting inflammation and fatty acid metabolism” (Alzheimer's Research & Therapy, 2017).
Read-outs that look alike come from different tables or passages of the source.

Assays:
MC65 = assay: Aβ toxicity (intracellular); assay type: cell-based, human; settings: read-out: Half-maximal effective concentration, Aβ toxicity (intracellular)
Description: The various phenotypic screening assays were conducted as previously described. Briefly, HT-22, primary cortical neurons, or MC65 was plated and exposed to the different environmental stresses. Cells were treated with varying concentrations of CAD-31, and half-maximal effective concentration (EC50) was determined on the basis of cell viability.
• An assay that mimics the dramatic loss of neurotrophic support in the old brain is the trophic factor withdrawal assay. Primary embryonic day 18 cortical cells are plated at low density in serum-free medium. At low density, the cells die within 2 days; they can be rescued by combinations of neurotrophic growth factors, but not by one alone ([19] and unpublished data). […] BDNF is a molecule that is also involved in promoting memory and neurogenesis and is reduced in the brain with age and in AD, as well as in other neurological disorders. BDNF has long been considered a drug target for AD [23]. […] A reduction in GSH is a common denominator of old age and essentially all chronic central nervous system (CNS) diseases. J147 and CAD-31 both effectively reduce oxidative stress, with EC50 of 6 nM and 20 nM, respectively. • CAD-31 also prevents loss of energy metabolism that leads to neuron cell death in an in vitro ischemia model. […] Intracellular Aβ toxicity was assayed in the human neuron cell line MC65 that conditionally expresses the C99 fragment of the amyloid precursor protein. When the cells are induced to make Aβ, the cells die within 4 days. Both J147 and CAD-31 block this toxicity at around 10 nM. Therefore, CAD-31 has a repertoire of neuroprotective activities similar but not identical to that of its parent compound, J147.

CYP 2Cb = CYP 2Cb (Homo sapiens, UniProt P11712); assay: CYP inhibition; assay type: in vitro ADME
Sequence of CYP 2Cb (P11712 whole entry): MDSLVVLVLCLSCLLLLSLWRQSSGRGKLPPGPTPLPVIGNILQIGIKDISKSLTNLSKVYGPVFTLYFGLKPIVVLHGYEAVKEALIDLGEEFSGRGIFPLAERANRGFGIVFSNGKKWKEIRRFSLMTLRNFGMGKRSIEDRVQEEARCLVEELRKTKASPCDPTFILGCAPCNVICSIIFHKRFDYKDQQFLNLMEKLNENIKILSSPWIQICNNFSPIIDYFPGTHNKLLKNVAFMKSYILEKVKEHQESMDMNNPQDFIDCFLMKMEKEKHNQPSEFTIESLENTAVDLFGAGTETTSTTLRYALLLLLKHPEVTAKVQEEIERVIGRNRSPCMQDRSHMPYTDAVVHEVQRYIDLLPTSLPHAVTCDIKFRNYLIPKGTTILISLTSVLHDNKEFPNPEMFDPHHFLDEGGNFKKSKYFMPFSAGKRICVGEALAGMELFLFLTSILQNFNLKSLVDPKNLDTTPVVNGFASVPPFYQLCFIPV

CYP 2D6 = CYP 2D6 (Homo sapiens, UniProt P10635); assay: CYP inhibition; assay type: in vitro ADME
Sequence of CYP 2D6 (P10635 whole entry): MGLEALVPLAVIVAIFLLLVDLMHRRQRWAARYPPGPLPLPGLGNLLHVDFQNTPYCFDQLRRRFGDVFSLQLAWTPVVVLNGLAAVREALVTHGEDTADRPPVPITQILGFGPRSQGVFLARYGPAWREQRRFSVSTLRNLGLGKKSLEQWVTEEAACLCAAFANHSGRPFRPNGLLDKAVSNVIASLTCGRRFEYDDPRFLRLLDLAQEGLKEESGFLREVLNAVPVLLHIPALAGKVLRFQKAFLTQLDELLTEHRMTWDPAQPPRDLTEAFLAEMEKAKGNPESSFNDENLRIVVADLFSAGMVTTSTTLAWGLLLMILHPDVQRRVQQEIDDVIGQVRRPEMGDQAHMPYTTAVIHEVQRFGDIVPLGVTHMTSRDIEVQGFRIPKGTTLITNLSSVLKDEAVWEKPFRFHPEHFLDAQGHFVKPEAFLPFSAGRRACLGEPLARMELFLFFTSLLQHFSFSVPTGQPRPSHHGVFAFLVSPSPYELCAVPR

[1] = test system: hippocampal gene expression; assay: Whole-transcriptome RNA-sequencing of hippocampus; assay type: in vivo, mice
Description: RNA was isolated from the hippocampus using the RNeasy Plus Universal Mini Kit (QIAGEN, Valencia, CA, USA). RNA sequencing (RNA-seq) libraries were prepared using the TruSeq Stranded mRNA Sample Prep Kit (Illumina, San Diego, CA, USA) according to the manufacturer’s instructions. Briefly, polyadenylation RNA was selected using oligo(dT) beads. Messenger RNA was then fragmented and reverse-transcribed. Complementary DNA (cDNA) was end-repaired, adenylated, and ligated with Illumina adapters with indexes. Adapter-ligated cDNA was then amplified. Libraries were pooled and sequenced single-end 50 bp on the HiSeq 2500 platform (Illumina). Sequencing reads were quality-tested using FastQC and aligned to the mm10 mouse genome using STAR Aligner version 2.4k. Mapping was carried out using default parameters (up to ten mismatches per read and up to nine multimapping locations per read). Raw gene expression was quantified across all gene exons by RNA-seq using the top-expressed isoform as a proxy for gene expression, and differential gene expression was carried out using the edge R package version 3.6.8, using replicates to compute within-group dispersion. p Values are adjusted to control the false discovery rate (FDR) by the method of Benjamini and Hochberg. Differentially expressed genes were defined as having an FDR <0.05 and a log2 fold change >1. […]

[2] = test system: APPswe/PS1∆E9 transgenic mice; assay: Two-day water maze; assay type: in vivo; settings: AD mice fed 200 ppm in chow for 3 months from 10 months of age; day 2
Description: (§1) The APPswe/PS1∆E9-transgenic mice were characterized previously. Line 85 mice carry two transgenes, the mouse/human chimeric APPswe, linked to Swedish familial AD and human PS1∆E9. At 10 months of age, female transgenic mice were fed a defined diet (Harlan Teklad; Envigo, Indianapolis, IN, USA) with and without CAD-31 (200 ppm, approximately 10 mg/kg/day). Treatment continued for 3 months, followed by behavior testing and tissue harvesting.
Spatial memory was determined using the 2-day water maze with 13-month-old APPswe/PS1∆E9 transgenic mice fed CAD-31 for the previous 3 months. The protocol was adapted from a publication by Gulinello and colleagues. The goal platform was positioned 45 cm from the outside wall in the northwest quadrant of the maze. Day 1 involved training the mice (n = 10 per group) to find the platform using cues located around the pool within a 180-second time frame. This training involved a series of visible platform trials where mice were tracked using EthoVision software (Noldus Information Technology, Leesburg, VA, USA). […] The time it took each mouse to find the hidden platform was measured as escape latency. All trials were recorded using the EthoVision software, and statistics were computed using InStat software (GraphPad Software, La Jolla, CA, USA) by an individual blinded to the experiment.

[3] = test system: panel of 60 brain ion channels, transporters, and receptors; assay: Lead Profile Screen; assay type: binding
From the text: Before undertaking animal experiments, it is important to determine if a new drug candidate has a chance for further clinical development by determining its pharmacological properties of bioavailability and brain penetrance as well as predicted safety.

CYP 3A4 = CYP 3A4 (Homo sapiens, UniProt P08684); assay: CYP inhibition; assay type: in vitro ADME
Sequence of CYP 3A4 (P08684 whole entry): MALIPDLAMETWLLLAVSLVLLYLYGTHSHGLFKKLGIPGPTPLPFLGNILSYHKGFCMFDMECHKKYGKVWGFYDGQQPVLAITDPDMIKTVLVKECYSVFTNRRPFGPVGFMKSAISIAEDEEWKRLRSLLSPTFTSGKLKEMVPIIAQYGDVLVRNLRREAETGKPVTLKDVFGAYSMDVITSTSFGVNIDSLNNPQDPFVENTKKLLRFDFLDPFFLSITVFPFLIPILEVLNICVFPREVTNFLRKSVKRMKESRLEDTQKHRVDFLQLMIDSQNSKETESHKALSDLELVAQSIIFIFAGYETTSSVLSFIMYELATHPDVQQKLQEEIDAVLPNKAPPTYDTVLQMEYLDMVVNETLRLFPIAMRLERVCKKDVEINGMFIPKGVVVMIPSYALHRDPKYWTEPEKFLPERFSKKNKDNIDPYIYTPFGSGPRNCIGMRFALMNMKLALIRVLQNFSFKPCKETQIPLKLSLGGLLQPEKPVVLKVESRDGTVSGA

APPswe/PS1∆E9 mice = assay: Elevated plus maze; assay type: in vivo; settings: AD mice fed 200 ppm in chow for 3 months from 10 months of age
Description: as §1
The elevated plus maze is used to analyze the anxiety response of mice. This test relies upon the tendency of mice to have a fear of heights and to navigate toward dark, enclosed spaces and remain there. Our maze is made of gray plastic and consists of four arms (two open without walls and two enclosed by 15.25-cm-high walls) that are 30 cm long and 5 cm wide in the shape of a plus sign. A video tracking system (EthoVision; Noldus Information Technology) is used to automatically collect behavioral data. Mice are habituated to the room 24 h before testing. Mice are also habituated to the maze for 2 minutes before testing by placing them in the center of the maze and blocking entry to the arms. Mice were tested in the maze for a 5-minute period. The anxiety of mice was measured by comparing the time spent in the open arms with time spent in the closed arms. Statistics were computed using GraphPad InStat software.

Q: Which results are given for `Cc1ccc(N(/N=C/c2cccc(OC(F)(F)F)c2)C(=O)C(F)(F)F)c(C)c1` [CAD-31]?
A: EC50 (MC65; Homo sapiens, MC65, MC65): ~0.01 µM; EC50 (MC65; MC65): 0.012 µM; EC50 at 10 µM (CYP 2Cb): > 10 µM; EC50 at 10 µM (CYP 2D6): > 10 µM; number of significant genes changed ([1]; AD model, CAD-31-treated vs AD): 730; number of significant genes changed ([1]; WT model, CAD-31-treated vs control): 29; escape latency, hidden platform trial T1 [2]: significantly reduces the escape latency relative to AD mice to control levels; interaction with proteins in the lead profile screen panel ([3]; 10 μM, 60 brain ion channels, transporters, and receptors): did not interact; EC50 ([3]; all targets of the panel): > 10 µM; EC50 at 10 µM (CYP 3A4): > 10 µM; EC50 at 10 µM (Micronucleus assay): > 10 µM; activity in the micronucleus assay (Micronucleus assay; 10 μM): showed no sign of acute toxicity or activity; EC50 at 10 µM (Ames test): > 10 µM; activity in the Ames test (Ames test; 10 μM): showed no sign of acute toxicity or activity; time spent on the open arm (disinhibition phenotype) (APPswe/PS1∆E9 mice): completely rescued to age-matched WT levels
